Measurements: patent US20210322508A1, “PEPTIDES AND COMPOSITIONS FOR TARGETED TREATMENT AND IMAGING” (SIGNABLOK, INC., priority 2018, published 2021)
Non-standard residues stand in square brackets, D forms with d. Residues, ends and D or L forms follow the SMILES beside them. No end group written: not given here. Met(O) = CS(=O)CC[C@H](N)C(=O)O; PTX = not defined here

Tests used:
[1] = system: Hepa 1-6 syngeneic hepatocellular carcinoma; settings: orthotopic Hepa 1-6, Wu et al. 2019, cited from earlier work
human cancer xenografts = assay: PTX-TREM-1/TRIOPEP tumor suppression in human cancer xenografts; type: in vivo; settings: free and SLP-bound form
Source text: Tumor suppression studies using PTX-TREM-1/TRIOPEP formulations in free or SLP-bound form can be performed in animal models of cancer similarly as described herein (see e.g., the examples 7 and 8). Female 6-8 week old NU/J mice can be obtained from the Jackson Laboratory (Bar Harbor, Me.) Human cancer cell lines including but not limited to human carcinoma, human pancreas or human breast cancer cell lines can be obtained from ATCC. […] Human cancer xenografts are established by injecting subcutaneously into the right flanks certain amounts of viable cells per mouse. […] When tumor grows to approximately 125 mm^3 (100-150 mm^3), animals are pair-matched by tumor size into treatment and control groups. Either PTX (TAXOL®; 30 mg/kg PTX) or PTX-TREM-1/TRIOPEP formulations in free (60 mg/kg PTX) or SLP-bound (30 mg/kg PTX) are intravenously administered to the animals via tail vein. Clinical observations, body weights and tumor volume measurements are made twice a week once tumors become measureable. It should be noted that TAXOL® is formulated with a detergent Cremophor that in itself is cytotoxic and is also the source of numerous side effects during chemotherapy. The Cremophor content of TAXOL® is about 80× that of paclitaxel per ml.

[2] = system: mice with collagen-induced arthritis (CIA); assay: collagen-induced arthritis (CIA) in mice; settings: CIA mice
Source text: As described herein, starting on day 24 after immunization, mice with CIA were intraperitoneally (i.p.) administered daily for 14 consecutive days with vehicle (black diamonds), dexamethasone (black squares), GF9 (white circles), GF9-LPC (black circles) and GA/E31-LPC (half black half white circles) at indicated doses. Daily clinical scores were given on a scale of 0-5 for each of the paws on days 24-38. On day 38, mice were killed and the histopathological examination of mouse joints was performed. Histopathological scores of inflammation (I), pannus (P), cartilage damage (CD), bone resorption (BR) and periosteal new bone formation (PBF) are shown. Summed histopathology scores were calculated as the sum of all five histopathological parameters. All results are expressed as the mean±SEM (n=10 mice per group).
Mouse body weight (BW) was measured every other day from day 24 to day 38. Mean BW changes were calculated as a percentage of the difference between beginning (day 24) and final (day 38) BWs of the CIA mice intraperitoneally (i.p.) treated daily for 14 consecutive days with vehicle, dexamethasone, GF9, GF9-LPC and GA/E31-LPC at indicated doses. All results are expressed as the mean±SEM (n=10 mice per group).
Plasma was collected on days 24, 30 and 38 from arthritic mice treated with vehicle (black diamonds), GF9 (white circles), GF9-LPC (black circles) and GA/E31-LPC (half black half white circles). Plasma samples were analyzed for concentrations of interleukin-1b (IL-1b), IL-6, and colony-stimulating factor 1 (CSF1). Results are expressed as the mean±SEM (n=5 mice per group).

[3] = system: DBA/1 mice with collagen-induced arthritis; assay: Collagen-induced arthritis (CIA) model; settings: 5 mg/kg i.p. daily 14 days, free peptides
Experimental: Animal studies were performed by Bolder BioPATH (Boulder, Colo., USA). CIA was induced in male 6- to 7-week-old DBA/1 mice by immunization with bovine type II collagen. Briefly, mice were injected intradermally with 100 μl of Freund's complete adjuvant containing 250 μg of bovine type II collagen (2 mg/ml final concentration) at the base of the tail on day 0 and again on day 21. On day 24, mice were randomized by body weight into treatment groups. […] Mice were weighed on study days 24, 26, 28, 30, 32, 34, 36 and 38 (prior to necropsy). Daily clinical scores were given on a scale of 0-5 for each of the paws on days 24-38. On day 38, mice were killed for necropsy.
At the end of study, fore paws, hind paws and knees were harvested, fixed in 10% neutral buffered formalin for 1-2 days, and then decalcified in 5% formic acid for 4-5 days before standard processing for paraffin embedding. Sections (8 μm) were cut and stained with toluidine blue (T blue). Hind paws, fore paws and knees were embedded and sectioned in the frontal plane. Six joints from each animal were processed for histopathological evaluation. The joints were then assessed using 0-5 scale for inflammation, pannus formation, cartilage damage, bone resorption and periosteal new bone formation. A summed histopathology score (sum of five parameters, 0-25 scale) was also determined.
Animal studies were performed by Bolder BioPATH (Boulder, Colo., USA). CIA was induced in male 6- to 7-week-old DBA/1 mice by immunization with bovine type II collagen. Briefly, mice were injected intradermally with 100 μl of Freund's complete adjuvant containing 250 μg of bovine type II collagen (2 mg/ml final concentration) at the base of the tail on day 0 and again on day 21. On day 24, mice were randomized by body weight into treatment groups. […] Starting day 24, mice were injected i.p. intraperitoneally daily for 14 consecutive days with 5 mg/kg G-KV21, G-HV21, G-TE21, M-TK32 and M-VE32 or with PBS (vehicle). Mice were weighed on study days 24, 26, 28, 30, 32, 34, 36 and 38 (prior to necropsy). Daily clinical scores were given on a scale of 0-5 for each of the paws on days 24-38. On day 38, mice were killed for necropsy.

J774 macrophages = assay: in vitro macrophage uptake (endocytosis) of rho B-labeled peptides and lipopeptide complexes; type: cell-based, murine; settings: 1 h pretreatment: 40 μM cytochalasin D, 400 μg/mL fucoidan, 10 μM BLT-1; uptake 4 h and 22 h
Experimental: In Vitro Macrophage Uptake of GF9HDL and GA/E31HDL A quantitative in vitro macrophage assay of endo-cytosis of rho B-labeled HDL-mimicking lipopeptide complexes by J774 macrophage was performed as described. (18-20) Briefly, BALB/c murine macrophage J774A.1 cells (ATCC) were cultured at 37° C. with 5% CO2 in Dulbecco's modified Eagle's medium (Cellgro Mediatech, Manassas, Va.) with 2 mM glutamine, 100 U/mL penicillin, 0.1 mg/mL streptomycin, and 10% heat-inactivated fetal bovine serum (Cellgro Mediatech) and grown to approximately 90% confluency in 12-well tissue culture plates (Corning Costar, Corning, N.Y.).
Cells were washed twice using phosphate-buffered saline and lysed using Passive Lysis Buffer (Promega, Madison, Wis.). Rho B fluorescence was measured in the lysates with 544-nm excitation and 590-nm emission filters, using a Fluoroscan Ascent CF fluorescence microplate reader (Thermo Labsystems, Vantaa, Finland). Protein concentrations in the lysates were measured using Bradford reagent (Sigma-Aldrich) and an MRX microplate reader (Dynex Technologies, Chantilly, Va.) according to the manufacturer's recommended protocol.

TGCT patients = settings: cited from earlier work
PVNS patients = settings: cited from earlier work
[4] = target: T1, TREM-1 (triggering receptor expressed on myeloid cells-1) on murine J774A.1 macrophages (mouse, UniProt Q9JKE2 21-230); assay: confocal immunofluorescence on macrophages; colocalisation only, no direct binding assay
T1 construct: whole, on cells; the cells are murine
T1 sequence (looked up): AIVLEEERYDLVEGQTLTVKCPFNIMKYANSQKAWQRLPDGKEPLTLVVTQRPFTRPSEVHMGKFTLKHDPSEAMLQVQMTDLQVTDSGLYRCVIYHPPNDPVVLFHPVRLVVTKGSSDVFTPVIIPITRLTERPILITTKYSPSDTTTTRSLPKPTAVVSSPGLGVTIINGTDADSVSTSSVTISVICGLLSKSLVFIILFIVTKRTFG
Experimental: (§1) Immunofluorescence analysis of TREM-1 and TREM-1/TRIOPEP in the cell membrane was performed using the standard, well-known in the art methods as described in Shen and Sigalov J Cell Mol Med 2017, 21:2524-2534, and Rojas et al. 2018, herein incorporate by reference.
(§2) BALB/c murine macrophage J774A.1 cells were grown at 37° C. in six-well tissue culture plates containing glass coverslips. After reaching target confluency of approximately 50%, cells were incubated for 6 h at 37° C. with Dylight 488-labeled GF9 or TREM-1/TRIOPEP-sSLP that contained Dylight 488-labeled GE31. TREM-1 staining was performed was performed using an Alexa 647-labeled rat anti-mouse TREM-1 antibody (Bio-Rad, Hercules, Calif.). ProLong Gold Antifade DAPI (4′,6′-diamidino-2-phenylindole) mounting medium was used to mount coverslips, and the slides were photographed using an Olympus BX60 fluorescence microscope. Confocal imaging was performed with a Leica TCS SP5 II laser scanning confocal microscope.

[5] = target: T1, TREM-1 (triggering receptor expressed …); assay: confocal immunofluorescence on macrophages, labelled peptide against TREM-1 staining; colocalisation only, no direct binding assay
Experimental: as §1, §2

GLLSGSLVF [mGF9-G, control murine GF9-G peptide, reference compound]
tumor growth (and survival), standalone treatment [1]: do not affect tumor growth and survival

GLLSKSLVF [mGF9, murine GF9 peptide]
tumor growth and survival, combined with anti-PD-L1 antibody ([1]; 25 mg/kg i.p. daily): synergistically inhibits tumor growth and improves survival

PTX-GFLSKSLVFPLGEEMRDRARAHVDALRTHLA ({PTX}-GFLSKSLVFPLGEEMRDRARAHVDALRTHLA; reading uncertain; also: printed as PTX-GFLSKSLVFPLGEEMRDRARAHVDALRTHLA) [PTX-TREM-1/TRIOPEP]
anticancer activity (tumor inhibition, survival rate) as compared to PTX (human cancer xenografts): anticipated to have a significantly higher anticancer activity | tolerability in cancer mice as compared to PTX (human cancer xenografts): anticipated to be substantially better tolerated by cancer mice

CSCC[C@H](NC(=O)[C@H](CCC(=O)O)NC(=O)[C@H](CCC(=O)O)NC(=O)[C@H](CCC(N)=O)NC(=O)[C@H](Cc1c[nH]c2ccccc12)NC(=O)[C@H](CCCCN)NC(=O)[C@H](CCCCN)NC(=O)[C@H](CCC(N)=O)NC(=O)[C@H](Cc1ccccc1)NC(=O)[C@H](CC(=O)O)NC(=O)[C@H](CC(=O)O)NC(=O)[C@H](CC(C)C)NC(=O)[C@H](Cc1ccc(O)cc1)NC(=O)[C@@H]1CCCN1C(=O)[C@H](Cc1ccccc1)NC(=O)[C@H](Cc1ccc(O)cc1)NC(=O)[C@H](CCCCN)NC(=O)[C@H](CC(C)C)NC(=O)[C@@H](NC(=O)[C@@H]1CCCN1C(=O)[C@@H](NC(=O)[C@H](CCCCN)NC(=O)[C@H](Cc1c[nH]c2ccccc12)NC(=O)[C@@H](N)CCSC)[C@@H](C)O)[C@@H](C)O)C(=O)N[C@@H](CCC(=O)O)C(=O)N[C@@H](CC(C)C)C(=O)N[C@@H](Cc1ccc(O)cc1)C(=O)N[C@@H](CCCNC(=N)N)C(=O)N[C@@H](CCC(N)=O)C(=O)N[C@@H](CCCCN)C(=O)N[C@H](C(=O)N[C@@H](CCC(=O)O)C(=O)O)C(C)C [M-VE32] (H-MWKTPTLKYFPYLDDFQKKWQEEMELYRQKVE-OH)
tolerability in arthritic mice (body weight changes) ([2]; day 24 to day 38): well-tolerated by arthritic mice | arthritis (clinical arthritis score) ([2]; treatment days 24-38): ameliorate the disease | CIA severity; bone and cartilage damage [3]: ameliorates CIA and protects against bone and cartilage damage

CCCCCCC1CCCC1=NNC(N)=S (stereo not shown) [BLT-1, Blocker of lipid transport 1, reference compound]
effect of scavenger receptor inhibitor on macrophage uptake of GF9-HDL and GA/E31-HDL (J774 macrophages): similarly inhibited the uptake of the complexes at both time points but to a lesser extent

fucoidan [reference compound]
effect of scavenger receptor inhibitor on macrophage uptake of GF9-HDL and GA/E31-HDL (J774 macrophages): substantially suppressed endocytosis of TREM-1 inhibitor complexes at 22 hours but not at 4 hours

C=C1[C@@H](C)[C@H]2[C@H](Cc3ccccc3)NC(=O)[C@]23[C@H](OC(C)=O)/C=C/[C@@](C)(O)C(=O)[C@@H](C)C/C=C/[C@H]3[C@@H]1O [cytochalasin D, reference compound]
effect of scavenger receptor inhibitor on macrophage uptake of GF9-HDL and GA/E31-HDL (J774 macrophages): significantly inhibited

FC(F)(F)c1ccc(CNc2ccc(Cc3c[nH]c4ncc(Cl)cc34)cn2)cn1 [Pexidartinib]
tumor volume (TGCT patients; Phase 2 study): prolonged regression in tumor volume in most patients | liver toxicity (TGCT patients; Phase 3 study suspended): two reported cases of nonfatal, serious liver toxicity | partial response (TGCT patients; extension study, 23 patients, Tap et al. 2015): 12 patients | stable disease (TGCT patients; extension study, 23 patients): 7 patients

Cc1ccc(NC(=O)c2ccc(CN3CCN(C)CC3)cc2)cc1Nc1nccc(-c2cccnc2)n1 [Imatinib]
symptomatic improvement (PVNS patients; 16 of 22 patients assessable for symptoms): 73% | overall response rate per RECIST (PVNS patients; 27 evaluable patients, Cassier et al. 2012): 19% | stable disease (PVNS patients; Twenty of 27 patients): 74%

B1: TREM-1 inhibitory peptide GF9 (GFLSKSLVF, human TREM-1 213-221) (peptide)
peptide: GFLSKSLVF
modifications: not fully specified
notes: also called TREM-1 modulatory peptide GF9
binding result [4]: binds

B2: TREM-1-related trifunctional peptide (TREM-1/TRIOPEP) GE31, methionine sulfoxidized (peptide)
peptide: GFLSKSLVFPYLDDFQKKWQEE[Met(O)]ELYRQKVE
modifications: not fully specified; printed as GFLSKSLVFPYLDDFQKKWQEEM(O)ELYRQKVE; also: delivered in spherical synthetic lipopeptide particles (TREM-1/TRIOPEP-sSLP)
notes: In the cytokine assays it was used as an equimolar mixture with GA31; also called TREM-1 modulatory peptide GE31
binding result [5]: binds
